These results are taken from patent US20230144824A1, “1H-PYRAZOLO[4,3-d]PYRIMIDINE COMPOUNDS AS TOLL-LIKE RECEPTOR 7 (TLR7) AGONISTS” (BRISTOL-MYERS SQUIBB COMPANY, priority 2020, published 2023).

The target of this assay is T1, human TLR7 (Homo sapiens, UniProt Q9NYK1).
T1 construct: host or cells: HEK-Blue TLR7 cells (engineered human embryonic kidney cells)
T1 sequence (Q9NYK1 27-1049): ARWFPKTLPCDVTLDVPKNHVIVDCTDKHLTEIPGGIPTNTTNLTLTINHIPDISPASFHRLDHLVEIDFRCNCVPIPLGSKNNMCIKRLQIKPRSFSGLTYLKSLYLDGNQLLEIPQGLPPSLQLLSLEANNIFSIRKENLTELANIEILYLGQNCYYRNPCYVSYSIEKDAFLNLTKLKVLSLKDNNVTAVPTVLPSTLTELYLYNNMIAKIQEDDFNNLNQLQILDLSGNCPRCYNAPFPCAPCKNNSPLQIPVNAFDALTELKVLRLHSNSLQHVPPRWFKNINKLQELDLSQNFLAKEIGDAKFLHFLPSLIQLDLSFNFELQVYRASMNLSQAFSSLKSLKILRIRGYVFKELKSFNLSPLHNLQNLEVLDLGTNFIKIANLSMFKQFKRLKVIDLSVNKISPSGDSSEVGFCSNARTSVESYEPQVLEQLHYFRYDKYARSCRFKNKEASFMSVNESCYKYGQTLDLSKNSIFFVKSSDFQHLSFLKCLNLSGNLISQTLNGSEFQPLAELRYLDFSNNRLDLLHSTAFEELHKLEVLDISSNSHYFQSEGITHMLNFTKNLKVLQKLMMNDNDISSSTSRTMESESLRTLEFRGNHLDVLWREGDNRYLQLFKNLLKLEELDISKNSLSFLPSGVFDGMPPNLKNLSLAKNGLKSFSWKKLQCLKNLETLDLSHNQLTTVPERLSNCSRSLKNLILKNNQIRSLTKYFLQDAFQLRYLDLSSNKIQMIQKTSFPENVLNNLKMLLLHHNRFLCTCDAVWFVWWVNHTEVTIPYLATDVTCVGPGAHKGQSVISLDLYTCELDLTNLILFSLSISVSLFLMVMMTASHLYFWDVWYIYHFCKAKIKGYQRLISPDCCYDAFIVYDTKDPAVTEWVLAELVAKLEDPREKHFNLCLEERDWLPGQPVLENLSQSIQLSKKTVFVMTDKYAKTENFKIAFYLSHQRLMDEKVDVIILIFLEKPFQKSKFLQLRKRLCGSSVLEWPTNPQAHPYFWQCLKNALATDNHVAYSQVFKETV
In words: Human TLR7 agonist activity assay (HEK-Blue TLR7 SEAP reporter). Format: cell-based. As to conditions: HEK-Blue TLR7 cells, 18 h treatment, average where assay performed multiple times, read-out: hTLR7 Agonism EC50. How it is done:
This procedure describes a method for assaying human TLR7 (hTLR7) agonist activity of the compounds disclosed in this specification.
HEK-Blue™ TLR7 cells were added to each well of a 384-well tissue-culture plate (15,000 cells per well) and incubated 16-18 h at 37° C., 5% CO2. Compounds (100 nl) were dispensed into wells containing the HEK-Blue™ TLR cells and the treated cells were incubated at 37° C., 5% CO2. After 18 h treatment ten microliters of freshly-prepared Quanti-Blue™ reagent (Invivogen) was added to each well, incubated for 30 min (37° C., 5% CO2) and SEAP levels measured using an Envision plate reader (OD=620 nm). The half maximal effective concentration values (EC50; compound concentration which induced a response halfway between the assay baseline and maximum) were calculated.
What is called EC50 is the concentration at which the effect is half-maximal. On to `CCC[C@@H](CCO)Nc1nc(N)nc2cnn(Cc3ncc(C4CCN(C(=O)CN5CCOCC5)CC4)cc3OC)c12` [Compound 208, 1-(4-{6-[(5-amino-7-{[(3S)-1-hydroxyhexan-3-yl]amino}-1H-pyrazolo[4,3-d]pyrimidin-1-yl)methyl]-5-methoxypyridin-3-yl}piperidin-1-yl)-2-(morpholin-4-yl)ethan-1-one], for which the EC50 was 0.168 µM. Under `CCC[C@@H](CCO)Nc1nc(N)nc2cnn(Cc3ccc(C4CN(C5CCOCC5)CCN4)cc3OC)c12` (stereo partly drawn) [Compound 203, (3S)-3-{[5-amino-1-({2-methoxy-4-[4-(oxan-4-yl)piperazin-2-yl]phenyl}methyl)-1H-pyrazolo[4,3-d]pyrimidin-7-yl]amino}hexan-1-ol] stands 0.035 µM. Under `CCC[C@@H](CCO)Nc1nc(N)nc2cnn(Cc3ncc(C4CCN(C5CCN(C)CC5)CC4)cc3OC)c12` [Compound 213, (3S)-3-({5-amino-1-[(3-methoxy-5-{1′-methyl-[1,4′-bipiperidine]-4-yl}pyridin-2-yl)methyl]-1H-pyrazolo[4,3-d]pyrimidin-7-yl}amino)hexan-1-ol] stands 0.0566 µM; under `CCC[C@@H](CCO)Nc1nc(N)nc2cnn(Cc3ccc(C4CN(CC(C)(C)O)CCN4)cc3OC)c12` (stereo partly drawn) [Compound 209, (3S)-3-{[5-amino-1-({4-[4-(2-hydroxy-2-methylpropyl)piperazin-2-yl]-2-methoxyphenyl}methyl)-1H-pyrazolo[4,3-d]pyrimidin-7-yl]amino}hexan-1-ol], 0.0123 µM. Then `CCCCNc1nc(N)nc2cnn(Cc3ncc(C4CCN(CC5CCOCC5)CC4)cc3OC)c12` [Compound 218, N7-butyl-1-[(3-methoxy-5-{1-[(oxan-4-yl)methyl]piperidin-4-yl}pyridin-2-yl)methyl]-1H-pyrazolo[4,3-d]pyrimidine-5,7-diamine], with 0.0259 µM.

For the molecule `CCCCNc1nc(N)nc2cnn(Cc3ccc(C4CCN(C(=O)CC(C)(C)O)CC4)cc3OC)c12` [Compound 162, 1-[4-(4-{[5-amino-7-(butylamino)-1H-pyrazolo[4,3-d]pyrimidin-1-yl]methyl}-3-methoxyphenyl)piperidin-1-yl]-3-hydroxy-3-methylbutan-1-one], the concentration for a half-maximal effect (EC50) was determined as 0.0122 µM. Under `CCC[C@@H](CCO)Nc1nc(N)nc2cnn(Cc3ncc(C4CCN(C5CCNCC5)CC4)cc3OC)c12` [Compound 214, (3S)-3-([5-amino-1-[(5-{[1,4′-bipiperidine]-4-yl}-3-methoxypyridin-2-yl)methyl]-1H-pyrazolo[4,3-d]pyrimidin-7-yl}amino)hexan-1-ol] stands 0.315 µM. With `COc1cc(C2CCN(C(=O)CCN(C)C)CC2)cnc1Cn1ncc2nc(N)nc(NCC3CC4(CC4)C3)c21` [Compound 155, 1-{4-[6-({5-amino-7-[({spiro[2.3]hexan-5-yl}methyl)amino]-1H-pyrazolo[4,3-d]pyrimidin-1-yl}methyl)-5-methoxypyridin-3-yl]piperidin-1-yl}-3-(dimethylamino)propan-1-one], the concentration for a half-maximal effect (EC50) amounted to 0.199 µM. Take `CCC[C@@H](CCO)Nc1nc(N)nc2cnn(Cc3ccc(C4CN(C(=O)CCN(C)C)CCN4)cc3OC)c12` (stereo partly drawn) [Compound 202, 1-(3-{4-[(5-amino-7-{[(3S)-1-hydroxyhexan-3-yl]amino}-1H-pyrazolo[4,3-d]pyrimidin-1-yl)methyl]-3-methoxyphenyl}piperazin-1-yl)-3-(dimethylamino)propan-1-one]: the concentration for a half-maximal effect (EC50) is 0.496 µM. Under `CCC[C@@H](CCO)Nc1nc(N)nc2cnn(Cc3ccc(C4CCN(C5CCOCC5)CC4)nc3)c12` [Compound 216, (3S)-3-{[5-amino-1-({6-[1-(oxan-4-yl)piperidin-4-yl]pyridin-3-yl}methyl)-1H-pyrazolo[4,3-d]pyrimidin-7-yl]amino}hexan-1-ol] stands 1.54 µM.

For the molecule `CCCCNc1nc(N)nc2cnn(Cc3ccc(C4CCNCC4)cc3OC)c12` [Compound 160, N7-butyl-1-{[2-methoxy-4-(piperidin-4-yl)phenyl]methyl}-1H-pyrazolo[4,3-d]pyrimidine-5,7-diamine], the EC50 came to 0.013 µM. For the molecule `COc1cc(C2CCN(CCO)CC2)cnc1Cn1ncc2nc(N)nc(NCC3CC4(CC4)C3)c21` [Compound 153, 2-{4-[6-({5-amino-7-[({spiro[2.3]hexan-5-yl}methyl)amino]-1H-pyrazolo[4,3-d]pyrimidin-1-yl}methyl)-5-methoxypyridin-3-yl]piperidin-1-yl}ethan-1-ol], the EC50 was 0.0868 µM. Under `CCC[C@@H](CCO)Nc1nc(N)nc2cnn(Cc3ncc(C4CCN(C5CCOC5)CC4)cc3OC)c12` (stereo partly drawn) [Compound 210, (3S)-3-{[5-amino-1-({3-methoxy-5-[1-(oxolan-3-yl)piperidin-4-yl]pyridin-2-yl}methyl)-1H-pyrazolo[4,3-d]pyrimidin-7-yl]amino}hexan-1-ol] stands 0.00905 µM. Under `CCC[C@@H](CCO)Nc1nc(N)nc2cnn(Cc3ncc(C4CCN(C5CCOC5)CC4)cc3OC)c12` (single isomer, unassigned) [Compound 211] stands 0.123 µM; under `COc1cc(C2CCN(CCN(C)C)CC2)cnc1Cn1ncc2nc(N)nc(NCc3cc(C)on3)c21` [Compound 145, 1-[(5-{1-[2-(dimethylamino)ethyl]piperidin-4-yl}-3-methoxypyridin-2-yl)methyl]-N7-[(5-methyl-1,2-oxazol-3-yl)methyl]-1H-pyrazolo[4,3-d]pyrimidine-5,7-diamine], 0.101 µM.

Regarding `CCC[C@@H](CCO)Nc1nc(N)nc2c(C)nn(Cc3ncc(C4CCN(C5CCOCC5)CC4)cc3OC)c12` [Compound 215, (3S)-3-{[5-amino-1-({3-methoxy-5-[1-(oxan-4-yl)piperidin-4-yl]pyridin-2-yl}methyl)-3-methyl-1H-pyrazolo[4,3-d]pyrimidin-7-yl]amino}hexan-1-ol], the EC50 was found to be 0.0298 µM. Then `CCC[C@@H](CCO)Nc1nc(N)nc2c(C)nn(Cc3cnc(C4CCNCC4)cc3OC)c12` [Compound 221, (3S)-3-[(5-amino-1-{[4-methoxy-6-(piperidin-4-yl)pyridin-3-yl]methyl}-3-methyl-1H-pyrazolo[4,3-d]pyrimidin-7-yl)amino]hexan-1-ol], with 0.0571 µM; and `CCCCNc1nc(N)nc2cnn(Cc3ncc(C4CCN(Cc5ncn(C)n5)CC4)cc3OC)c12` [Compound 217, N7-butyl-1-[(3-methoxy-5-{1-[(1-methyl-1H-1,2,4-triazol-3-yl)methyl]piperidin-4-yl}pyridin-2-yl)methyl]-1H-pyrazolo[4,3-d]pyrimidine-5,7-diamine], with 0.0801 µM; and `COc1cc(C2CCNCC2)cnc1Cn1ncc2nc(N)nc(NCC3CC4(CC4)C3)c21` [Compound 152, 1-{[3-methoxy-5-(piperidin-4-yl)pyridin-2-yl]methyl}-N7-({spiro[2.3]hexan-5-yl}methyl)-1H-pyrazolo[4,3-d]pyrimidine-5,7-diamine], with 0.111 µM. Then `CCC[C@@H](CCO)Nc1nc(N)nc2c(C)nn(Cc3cnc(C4CCN(C5CCOCC5)CC4)cc3OC)c12` [Compound 222, (3S)-3-{[5-amino-1-({4-methoxy-6-[1-(oxan-4-yl)piperidin-4-yl]pyridin-3-yl}methyl)-3-methyl-1H-pyrazolo[4,3-d]pyrimidin-7-yl]amino}hexan-1-ol], with 0.17 µM.
